A short description of series [1]: Gastric Simulated Fluid (GSF) Test. It is filed as physicochemical. As for the experimental part: Gastric Simulated Fluid (GSF) Test.
For all the experiments, physiological gastric conditions were reproduced taking into account the volume of gastric fluid on an empty stomach (35-40 mL) (Mudie D M et al. Quantification of gastrointestinal liquid volumes and distribution following a 240 mL dose of water in the fasted state. Mol Pharm. 2014 Sep. 2; 11(9):3039-47) and the fact that in the stomach, the salt concentration is different from that of blood plasma (0.25% vs 0.9%) (Sandra Klein. The Use of Biorelevant Dissolution Media to Forecast the In Vivo Performance of a Drug. AAPS J. 2010 September; 12(3): 397-406).
The effect of the alkalizing agent on gastric pH was simulated in vitro by preparing a 0.2% saline solution of NaCl and bringing the pH of the solution to around 1.2-2 with 37% hydrochloric acid diluted 1:5.
GSF was prepared using the components in table 1, all tests were performed simulating body temperature (37° C.) and performed in triplicate.
400 ml of GSF was stirred with magnetic stirrer and settled at 37° C. and the three-point digital pH meter was applied. 40 mg of Folic Acid was added to this solution.
The bright orange dispersion was stirred for 5 minutes at 200 rpm and then the stirring was stopped.
The same experiment was repeated adding 30 mg of Zinc Oxide to the same amount of folic acid. […] Such a pH was maintained in the range 5.0-5.5 also by simulating physiological acid secretion, combining 2 ml of 0.1 M HCl every 15 minutes for a total of 60 minutes.

For series [2] the following is noted: non-ionized carboxylic acid form, in contact with gastric fluid (pH 1.5-2.0 empty, 3.5-4.5 full stomach); cited from earlier work.

Where only a bound is given, the exact number is not on record here.

As for `[O]=[Zn]` [Zinc Oxide], the “pH recorded in GSF after stirring” value in series [1] (30 mg Zinc Oxide + 40 mg folic acid in 400 ml GSF (initial pH 1.2-2), 37° C., after 5 minutes at 200 rpm) is on record as 5.2. The “pH maintained under simulated physiological acid secretion” value in series [1] (30 mg Zinc Oxide + 40 mg folic acid in 400 ml GSF, 2 ml of 0.1 M HCl every 15 minutes for a total of 60 minutes) is listed as 5.0-5.5.

As for `Nc1nc2ncc(CNc3ccc(C(=O)N[C@@H](CCC(=O)O)C(=O)O)cc3)nc2c(=O)[nH]1` [folic acid, pteroyl(mono)-glutamic acid], the water solubility in series [2] is less than 10 µg/mL. For the same compound, the “observation of folic acid solubility/precipitation in GSF” value in series [1] (40 mg Folic Acid alone in 400 ml GSF pH 1.2-2, 37° C., stirred 5 minutes at 200 rpm, observed after 10 minutes) is reported as “complete precipitation”. In addition, the “observation of folic acid dissolution in GSF with Zinc Oxide” value in series [1] (40 mg folic acid + 30 mg Zinc Oxide in 400 ml GSF, 37° C., stirred 5 minutes at 200 rpm) is “translucent orange solution in the absence of precipitation”.

Values taken from US20230172966A1, “COMPOSITION FOR THE PREVENTION AND TREATMENT OF FOLATE AND/OR VITAMIN B12 DEFICIENCY CONDITIONS, PARTICULARLY HYPERHOMOCYSTEINEMIA” (INPHA RESEARCH S.R.L., priority 2020, published 2023).
